From patent US20220204439A1, “LIPIDS AND LIPID NANOPARTICLE FORMULATIONS FOR DELIVERY OF NUCLEIC ACIDS” (Acuitas Therapeutics, Inc., priority 2015, published 2022)

Assays:
[1] = system: luciferase expression in the liver; test: In vivo luciferase mRNA expression in mouse liver with lipid nanoparticle formulations; design: species or system C57BL/6 mice; conditions: tail vein injection, liver 4 hours after administration, FLuc mRNA; for Liver Luc @ 0.3 mg/kg (ng luc/g liver) / Liver Luc @ 0.3 mg/kg dose: 0.3 mg mRNA/kg; for Liver Luc @ 0.3 mg/kg (ng luc/g liver) / Liver Luc @ 1.0 mg/kg (ng luc/g liver): LNP 50% cationic lipid/10% DSPC/38.5% cholesterol/1.5% PEG-DMA; for Liver Luc @ 1.0 mg/kg (ng luc/g liver) / Liver Luc @ 1.0 mg/kg dose: 1.0 mg mRNA/kg; for Liver Luc @ 0.3 mg/kg dose / Liver Luc @ 1.0 mg/kg dose: LNP 50% cationic lipid/10% DSPC/38.5% cholesterol/1.5% PEG-DMG
Method: Cationic lipid (MC3), DSPC, cholesterol and PEG-lipid were solubilized in ethanol at a molar ratio of 50:10:38.5:1.5. Lipid nanoparticles (LNP) were prepared at a total lipid to mRNA weight ratio of approximately 10:1 to 30:1. Briefly, the mRNA was diluted to 0.2 mg/mL in 10 to 50 mM citrate buffer, pH 4. Syringe pumps were used to mix the ethanolic lipid solution with the mRNA aqueous solution at a ratio of about 1:5 to 1:3 (vol/vol) with total flow rates above 15 ml/min. The ethanol was then removed and the external buffer replaced with PBS by dialysis. Finally, the lipid nanoparticles were filtered through a 0.2 μm pore sterile filter. Lipid nanoparticle particle size was 70-90 nm diameter as determined by quasi-elastic light scattering using a Nicomp 370 submicron particle sizer (Santa Barbara, Calif.).
Studies were performed in 6-8 week old female C57BL/6 mice (Charles River) according to guidelines established by an institutional animal care committee (ACC) and the Canadian Council on Animal Care (CCAC). Varying doses of mRNA-lipid nanoparticle were systemically administered by tail vein injection and animals euthanized at specific time points (1, 2, 4, 8 and 24 hrs) post-administration. Liver and spleen were collected in pre-weighted tubes, weights determined, immediately snap frozen in liquid nitrogen and stored at −80° C. until processing for analysis.
For liver, approximately 50 mg was dissected for analyses in a 2 mL FastPrep tubes (MP Biomedicals, Solon Ohio). ¼″ ceramic sphere (MP Biomedicals) was added to each tube and 500 μL of Glo Lysis Buffer—GLB (Promega, Madison Wis.) equilibrated to room temperature was added to liver tissue. Liver tissues were homogenized with the FastPrep24 instrument (MP Biomedicals) at 2×6.0 m/s for 15 seconds. Homogenate was incubated at room temperature for 5 minutes prior to a 1:4 dilution in GLB and assessed using SteadyGlo Luciferase assay system (Promega). Specifically, 50 μL of diluted tissue homogenate was reacted with 50 μL of SteadyGlo substrate, shaken for 10 seconds followed by 5 minute incubation and then quantitated using a CentroXS^3 LB 960 luminometer (Berthold Technologies, Germany). The amount of protein assayed was determined by using the BCA protein assay kit (Pierce, Rockford Ill.). Relative luminescence units (RLU) were then normalized to total ug protein assayed. To convert RLU to ng luciferase a standard curve was generated with QuantiLum Recombinant Luciferase (Promega). Based in the data provided in FIG. 1, the four-hour time point was chosen for efficacy evaluation of the lipid formulations (see Example 29).
The FLuc mRNA (L-6107) from Trilink Biotechnologies will express a luciferase protein, originally isolated from the firefly, Photinus pyralis. FLuc is commonly used in mammalian cell culture to measure both gene expression and cell viability. It emits bioluminescence in the presence of the substrate, luciferin. This capped and polyadenylated mRNA is fully substituted with 5-methylcytidine and pseudouridine.
The cationic lipids shown in Table 2 have previously been tested with nucleic acids. For comparative purposes, these lipids were also used to formulate lipid nanoparticles containing the FLuc mRNA (L-6107) using an in line mixing method, as described in example 28 and in PCT/US10/22614, which is hereby incorporated by reference in its entirety. […] Relative activity was determined by measuring luciferase expression in the liver 4 hours following administration via tail vein injection as described in example 28. The activity was compared at a dose of 0.3 and 1.0 mg mRNA/kg and expressed as ng luciferase/g liver measured 4 hours after administration, as described in Example 28. […]

[2] = pKa of formulated cationic lipids in lipid nanoparticles (TNS fluorescence assay); format: physicochemical; conditions: probe 2-(p-toluidino)-6-napthalene sulfonic acid (TNS), 1 µM final; formulated in LNP cationic lipid/DSPC/cholesterol/PEG-lipid 50/10/38.5/1.5 mol %; pH of half-maximal TNS fluorescence
Method: As described elsewhere, the pKa of formulated cationic lipids is correlated with the effectiveness of LNPs for delivery of nucleic acids (see Jayaraman et al, Angewandte Chemie, International Edition (2012), 51(34), 8529-8533; Semple et al, Nature Biotechnology 28, 172-176 (2010)). The preferred range of pKa is ˜5 to ˜7. […] Lipid nanoparticles comprising of cationic lipid/DSPC/cholesterol/PEG-lipid (50/10/38.5/1.5 mol %) in PBS at a concentration of 0.4 mM total lipid are prepared using the in-line process as described in Example 28. TNS was prepared as a 100 μM stock solution in distilled water. Vesicles were diluted to 24 μM lipid in 2 mL of buffered solutions containing, 10 mM HEPES, 10 mM MES, 10 mM ammonium acetate, 130 mM NaCl, where the pH ranged from 2.5 to 11. An aliquot of the TNS solution was added to give a final concentration of 1 μM and following vortex mixing fluorescence intensity was measured at room temperature in a SLM Aminco Series 2 Luminescence Spectrophotometer using excitation and emission wavelengths of 321 nm and 445 nm. A sigmoidal best fit analysis was applied to the fluorescence data and the pKa was measured as the pH giving rise to half-maximal fluorescence intensity (see FIG. 2).

| pKa [2] | Compound | Liver Luc @ 0.3 mg/kg (ng luc/g liver) [1] | Liver Luc @ 1.0 mg/kg (ng luc/g liver) [1] | Liver Luc @ 0.3 mg/kg dose [1] | Liver Luc @ 1.0 mg/kg dose [1] |
| --- | --- | --- | --- | --- | --- |
| 5.97 | CCCCCCC(CCCC)COC(=O)CCCCCCCCC(CCCCCCCCC(=O)OCC(CCCC)CCCCCC)N(CCCN(C)C)C(=O)C(CC)CCCCC (centres unmarked) [Compound 35] | 1083 ± 350 ng luc/g liver | 8554 ± 4587 ng luc/g liver | – | – |
| – | CCCCC/C=C\C/C=C\CCCCCCCCC(CCCCCCCC/C=C\C/C=C\CCCCC)OC(=O)CCN(C)C [MC2, reference compound] | – | – | 4 ± 1 ng luciferase/g liver | – |
| 6.13 | CCCCCCCCC(=O)N(CCCN(C)C)C(CCCCCCCCC(=O)OC(CCCCCC)CCCCCC)CCCCCCCCC(=O)OC(CCCCCC)CCCCCC [Compound 11] | 2273 ± 294 ng luc/g liver | 16502 ± 4301 ng luc/g liver | – | – |
| – | CCCCC/C=C\C/C=C\CCCCCCCCC1(CCCCCCCC/C=C\C/C=C\CCCCC)OC[C@@H](CCN(C)C)O1 [XTC2, reference compound] | – | – | 80 ± 28 ng luciferase/g liver | 237 ± 99 ng luciferase/g liver |
| 5.64 | CCCCC/C=C\C/C=C\CCCCCCCCC(CCCCCCCC/C=C\C/C=C\CCCCC)N(CCCCCCCCC)CCCN(C)C [Compound 1] | 54 ± 8 ng luc/g liver | 226 ± 20 ng luc/g liver | – | – |
| 5.61 | CCCCC/C=C\C/C=C\CCCCCCCCC(CCCCCCCC/C=C\C/C=C\CCCCC)N(CCCN(C)C)C(=O)CCCCCCCC(=O)OCC [Compound 37] | – | – | – | – |
| 6.14 | CCCCC/C=C\C/C=C\CCCCCCCCC(CCCCCCCC/C=C\C/C=C\CCCCC)N(CCCN(C)C)C(=O)CCCCCCC/C=C\C/C=C\CCCCC [Compound 6] | 19 ± 4 ng luc/g liver | 211 ± 119 ng luc/g liver | – | – |
| 6.27 | CCCCCCCCC(=O)N(CCCN(C)C)C(CCCCCCCCC(=O)OCC(CCCC)CCCCCC)CCCCCCCCC(=O)OCC(CCCC)CCCCCC (centres unmarked) [Compound 9] | 2381 ± 1162 ng luc/g liver | 17157 ± 2470 ng luc/g liver | – | – |
| 6.33 | CCCCCCCC(=O)N(CCCN1CCCC1)C(CCCCCCCCC(=O)OCC(CCCC)CCCCCC)CCCCCCCCC(=O)OCC(CCCC)CCCCCC (centres unmarked) [Compound 14] | 2851 ± 438 ng luc/g liver | 15445 ± 3693 ng luc/g liver | – | – |
| 6.36 | CCCCC/C=C\C/C=C\CCCCCCCCC(CCCCCCCC/C=C\C/C=C\CCCCC)N(CC)CCCN(C)C [C, reference compound] | 24 ± 4 ng luc/g liver | 77 ± 19 ng luc/g liver | – | – |
| – | CCCCCCCCCCC(CCCCCCCC)COC(=O)CCCCCC(CCCCCC(=O)OCC(CCCCCCCC)CCCCCCCCCC)N(CCCN(C)C)C(=O)CCCCCCCC (centres unmarked) [Compound 41] | 832 ± 298 ng luc/g liver | 7437 ± 1612 ng luc/g liver | – | – |
| 6.37 | CCCCC/C=C\C/C=C\CCCCCCCCC(CCCCCCCC/C=C\C/C=C\CCCCC)C(=O)N(CCCCCCCCC)CCCN(C)C [Compound 16] | 231 ± 100 ng luc/g liver | 1185 ± 838 ng luc/g liver | – | – |
| – | CCCCC(CC)C(=O)OCCCCCCCCCC(CCCCCCCCCOC(=O)C(CC)CCCC)OC(=O)CCCN(C)C (centres unmarked) [Compound 137, reference compound] | – | – | 281 ± 203 ng luciferase/g liver | 588 ± 303 ng luciferase/g liver |
| 6.14 | CCCCCC(CCCC)OC(=O)CCCCCCCC(=O)N(CCCN(C)C)C(CCCCCCCCC(=O)OC(CCCC)CCCC)CCCCCCCCC(=O)OC(CCCC)CCCC (centres unmarked) [Compound 24] | 1120 ± 376 ng luc/g liver | 7425 ± 2810 ng luc/g liver | – | – |
| 6.27 | CCCCC/C=C\C/C=C\CCCCCCCCC(CCCCCCCC/C=C\C/C=C\CCCCC)N(CCCN(C)C)C(=O)CCCCCCCC [Compound 5] | 603 ± 167 ng luc/g liver | 3640 ± 601 ng luc/g liver | – | – |
| 6.57 | CCCCCCCCC(CCCCCC)COC(=O)CCCCCC(CCCCCC(=O)OCC(CCCCCC)CCCCCCCC)N(CCCN(C)C)C(=O)CCCCCCCC(=O)OCC (centres unmarked) [Compound 40] | 753 ± 156 ng luc/g liver | 2203 ± 1555 ng luc/g liver | – | – |
| 6.45 | CCCCCCCCC(=O)N(CCCN(C)C)C(CCCCCC(=O)OCC(CCCCCC)CCCCCCCC)CCCCCC(=O)OCC(CCCCCC)CCCCCCCC (centres unmarked) [Compound 38] | 905 ± 443 ng luc/g liver | 5353 ± 2082 ng luc/g liver | – | – |
| 6.22 | CCCCCCCCC(=O)N(CCCN(C)C)C(CCCCCCCCC(=O)OCC(CCCCCC)CCCCCCCC)CCCCCCCCC(=O)OCC(CCCCCC)CCCCCCCC (centres unmarked) [Compound 13] | 1537 ± 777 ng luc/g liver | 10907 ± 2032 ng luc/g liver | – | – |
| – | CCCCC/C=C\C/C=C\CCCCCCCCOCC(CN(C)C)OCCCCCCCC/C=C\C/C=C\CCCCC (centres unmarked) [DLinDMA, reference compound] | – | – | 13 ± 3 ng luciferase/g liver | 67 ± 20 ng luciferase/g liver |
| – | CCCCCC/C=C\C/C=C\COC(=O)CCCCCCCC(CCCCCCCC(=O)OC/C=C\CCCCCC)OC(=O)CCCN(C)C (centres unmarked) [319 (2% PEG), reference compound] | – | – | 258 ± 67 ng luciferase/g liver | 681 ± 203 ng luciferase/g liver |
| – | CCCCC/C=C\C/C=C\CCCCCCCCC(CCCCCCCC/C=C\C/C=C\CCCCC)OC(=O)CCCCN(C)C [MC4, reference compound] | – | – | 41 ± 10 ng luciferase/g liver | – |
| 7.05 | CCCCC/C=C\C/C=C\CCCCCCCCC(CCCCCCCC/C=C\C/C=C\CCCCC)NCCCN(C)C [A, reference compound] | – | – | – | – |

| Compound | pKa [2] | Liver Luc @ 0.3 mg/kg (ng luc/g liver) [1] | Liver Luc @ 1.0 mg/kg (ng luc/g liver) [1] | Liver Luc @ 0.3 mg/kg dose [1] | Liver Luc @ 1.0 mg/kg dose [1] |
| --- | --- | --- | --- | --- | --- |
| CCCCCCCC(=O)N(CCCN(C)C)C(CCCCCCCCC(=O)OC(CCCCCC)CCCCCC)CCCCCCCCC(=O)OC(CCCCCC)CCCCCC [Compound 10] | 6.16 | 2379 ± 93 ng luc/g liver | 26181 ± 2900 ng luc/g liver | – | – |
